Assay results taken from US7186749B2, “Pyrrolo-naphthyl acids and methods for using them” (Wyeth, priority 2004, dated 2007).

Columns and labels:
[1] = biological target: T1, recombinant human plasminogen activator inhibitor-1 (PAI-1) (Homo sapiens, UniProt P05121); test: Primary screen for PAI-1 inhibition (chromogenic tPA activity, Spectrozyme-tPA); assay type: biochemical; conditions: 140 nM PAI-1, 70 nM tPA, pH 6.6; for inhibition at 10 µM: test compound 10 μM; for inhibition at 25 µM: test compound 25 μM
T1 construct: purchased Molecular Innovations, Royal Oak, Mich
T1 sequence (P05121 24-402): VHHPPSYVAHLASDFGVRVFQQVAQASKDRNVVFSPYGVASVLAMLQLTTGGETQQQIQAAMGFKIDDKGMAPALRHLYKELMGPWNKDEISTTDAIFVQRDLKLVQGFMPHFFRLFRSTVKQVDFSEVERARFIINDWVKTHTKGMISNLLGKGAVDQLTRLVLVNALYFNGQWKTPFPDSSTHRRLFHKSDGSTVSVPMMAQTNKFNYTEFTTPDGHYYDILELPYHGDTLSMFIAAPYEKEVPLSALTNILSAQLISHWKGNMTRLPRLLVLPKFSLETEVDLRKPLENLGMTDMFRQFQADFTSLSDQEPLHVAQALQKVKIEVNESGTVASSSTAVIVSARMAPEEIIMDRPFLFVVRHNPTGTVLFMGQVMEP
Method: Test compounds are dissolved in DMSO at a final concentration of 10 mM, then diluted 100× in physiologic buffer. The inhibitory assay is initiated by the addition of the test compound (1–100 μM final concentration, maximun DMSO concentration of 0.2%) in a pH 6.6 buffer containing 140 nM recombinant human plasminogen activator inhibitor-1 (PAI-1; Molecular Innovations, Royal Oak, Mich.). Following a 1 hour incubation at room temperature, 70 nM of recombinant human tissue plasminogen activator (tPA) is added, and the combination of the test compound, PAI-1 and tPA is incubated for an additional 30 minutes. Following the second incubation, Spectrozyme-tPA (American Diagnostica, Greenwich, Conn.), a chromogenic substrate for tPA, is added and absorbance read at 405 nm at 0 and 60 minutes. Relative PAI-1 inhibition is equal to the residual tPA activity in the presence of the test compound and PAI-1. Control treatments include the complete inhibition of tPA by PAI-1 at the molar ratio employed (2:1), and the absence of any effect of the test compound on tPA alone.

human PAI-1 = human PAI-1 (Homo sapiens, UniProt P05121); test: Antibody assay for determining IC50 of inhibition of PAI-1 (active PAI-1 bound to tPA-coated plate); assay type: binding; conditions: pH 7.5, human PAI-1 50 ng/ml
Sequence of human PAI-1 (P05121 24-402): as above
Method: This assay is based upon the non-SDS dissociable interaction between tPA and active PAI-1. Assay plates are initially coated with human tPA (10 μg/ml). Test compounds of the present invention are dissolved in DMSO at 10 mM, then diluted with physiologic buffer (pH 7.5) to a final concentration of 1–50 μM. Test compounds are incubated with human PAI-1 (50 ng/ml) for 15 minutes at room temperature. The tPA-coated plate is washed with a solution of 0.05% Tween 20 and 0.1% BSA, then the plate is blocked with a solution of 3% BSA. An aliquot of the pyrrolo-naphthyl/PAI-1 solution is then added to the tPA-coated plate, incubated at room temperature for 1 hour, and washed. Active PAI-1 bound to the plate is assessed by adding an aliquot of a 1:1000 dilution of the 33B8 monoclonal antibody against human PAI-1, and incubating the plate at room temperature for 1 hour (Molecular Innovations, Royal Oak, Mich.). The plate is again washed, and a solution of goat anti-mouse IgG-alkaline phosphatase conjugate is added at a 1:50,000 dilution in goat serum. The plate is incubated 30 minutes at room temperature, washed, and a solution of alkaline phosphatase substrate is added. The plate is incubated 45 minutes at room temperature, and color development is determined at OD405 nm. The quantitation of active PAI-1 bound to tPA at varying concentrations of the test compound is used to determine the IC50. Results are analyzed using a logarithmic best-fit equation. The assay sensitivity is 5 ng/ml of human PAI-1 as determined from a standard curve ranging from 0–100 ng/ml.

Structure (SMILES) | inhibition at 10 µM [1] [%] | inhibition at 25 µM [1] [%] | IC50 (human PAI-1) [µM] | melting point
O=C(O)C(Cc1ccccc1)Oc1ccc2cc(-c3ccc(-c4ccccc4)[nH]3)ccc2c1 (stereo not drawn) [Example 1, 3-phenyl-2-{[6-(5-phenyl-1H-pyrrol-2-yl)-2-naphthyl]oxy}propanoic acid] | 12 | 78 | 44.4 | 176 to 178 °C
O=C(O)C(Cc1ccccc1)Oc1ccc2cc(-c3ccc(-c4ccccc4)n3Cc3ccccc3)ccc2c1 (stereo not drawn) [Example 2, 2-{[6-(1-benzyl-5-phenyl-1H-pyrrol-2-yl)-2-naphthyl]oxy}-3-phenylpropanoic acid] | 37 | 66 | 16.1 | 70 to 80 °C
c1ccc(-c2ccc(-c3ccc4cc(OCc5nnn[nH]5)ccc4c3)[nH]2)cc1 [Example 3, 5-({[6-(5-phenyl-1H-pyrrol-2-yl)-2-naphthyl]oxy}methyl)-1H-tetraazole] | 15 | 52 | 33 | 237 to 240 °C (dec.)
c1ccc(Cn2c(-c3ccccc3)ccc2-c2ccc3cc(OCc4nnn[nH]4)ccc3c2)cc1 [Example 4, 5-({[6-(1-benzyl-5-phenyl-1H-pyrrol-2-yl)-2-naphthyl]oxy}methyl)-1H-tetraazole] | 11 | 67 |  | 190 to 200 °C (dec.)
Cn1c(-c2ccccc2)ccc1-c1ccc2cc(OCc3nnn[nH]3)ccc2c1 [Example 5, 5-({[6-(1-methyl-5-phenyl-1H-pyrrol-2-yl)-2-naphthyl]oxy}methyl)-1H-tetraazole] | 15 | 32 |  | 231 to 233 °C (dec.)
O=C(O)COc1ccc2cc(-c3ccc(-c4ccccc4)n3Cc3ccccc3)ccc2c1 [Example 6, {[6-(1-benzyl-5-phenyl-1H-pyrrol-2-yl)-2-naphthyl]oxy}acetic acid] | 14 | 74 |  | 171 to 172 °C
Cn1c(-c2ccccc2)ccc1-c1ccc2cc(OC(Cc3ccccc3)C(=O)O)ccc2c1 (stereo not drawn) [Example 7, 2-{[6-(1-methyl-5-phenyl-1H-pyrrol-2-yl)-2-naphthyl]oxy}-3-phenylpropanoic acid] | 30 | 95 |  | 171 to 173 °C
O=C(O)C(Cc1ccccc1)Oc1ccc2cc(-c3ccc(-c4ccccc4)n3Cc3ccc(C(F)(F)F)cc3)ccc2c1 (stereo not drawn) [Example 8, 3-phenyl-2-[(6-{5-phenyl-1-[4-(trifluoromethyl)benzyl]-1H-pyrrol-2-yl}2-naphthyl)oxy]propanoic acid] | 43 | 62 |  | 153 to 155 °C
FC(F)(F)c1ccc(Cn2c(-c3ccccc3)ccc2-c2ccc3cc(OCc4nnn[nH]4)ccc3c2)cc1 [Example 9, 5-{[(6-{5-Phenyl-1-[4-(trifluoromethyl)benzyl]-1H-pyrrol-2-yl}-2-naphthyl)oxy]methyl}-1H-tetraazole] | 31 | 49 |  | 173 to 175 °C

Continued, values first:

inhibition at 10 µM [1] [%] | inhibition at 25 µM [1] [%] | IC50 (human PAI-1) [µM] | melting point | Structure (SMILES)
29 | 55 |  | 154 to 156 °C | O=C(O)COc1ccc2cc(-c3ccc(-c4ccccc4)n3Cc3ccc(C(F)(F)F)cc3)ccc2c1 [Example 10, [(6-{5-Phenyl-1-[4-(trifluoromethyl)benzyl]-1H-pyrrol-2-yl}-2-naphthyl)oxy]acetic acid]
30 | 68 |  | 269 to 270 °C (dec.) | c1ccc(-c2ccc(-c3ccc4cc(OCc5nnn[nH]5)ccc4c3)n2-c2ccccc2)cc1 [Example 11, 5-({[6-(1,5-diphenyl-1H-pyrrol-2-yl)-2-naphthyl]oxy}methyl)-1H-tetraazole]
48 | 58 |  | 258 to 260 °C (dec.) | O=C(O)COc1ccc2cc(-c3ccc(-c4ccccc4)n3-c3ccccc3)ccc2c1 [Example 12, {[6-(1,5-diphenyl-1H-pyrrol-2-yl)-2-naphthyl]oxy}acetic acid]
33 | 60 |  | 194 to 196 °C (dec.) | O=C(O)C(Cc1ccccc1)Oc1ccc2cc(-c3ccc(-c4ccccc4)n3-c3ccccc3)ccc2c1 (stereo not drawn) [Example 13, 2-{[6-(1,5-diphenyl-1H-pyrrol-2-yl)-2-naphthyl]oxy}-3-phenylpropanoic acid]
23 | 31 |  | 228 to 229 °C | O=C(O)c1ccc(COc2ccc3cc(-c4ccc(-c5ccccc5)n4Cc4ccc(C(F)(F)F)cc4)ccc3c2)cc1 [Example 14, 4-{[(6-{5-phenyl-1-[4-(trifluoromethyl)benzyl]-1H-pyrrol-2-yl}-2-naphthyl)oxy]methyl}benzoic acid]
30 | 68 |  | 309 to 310 °C | O=C(O)c1ccc(COc2ccc3cc(-c4ccc(-c5ccccc5)n4-c4ccccc4)ccc3c2)cc1 [Example 15, 4-({[6-(1,5-diphenyl-1H-pyrrol-2-yl)-2-naphthyl]oxy}methyl)benzoic acid]
40 | 63 |  | 250 to 252 °C | O=C(O)c1ccc(COc2ccc3cc(-c4ccc(-c5ccccc5)n4Cc4ccc(C(F)(F)F)cc4)ccc3c2)c(C(=O)O)c1 [Example 16, 4-{[(6-{5-phenyl-1-[4-(trifluoromethyl)benzyl]-1H-pyrrol-2-yl}-2-naphthyl)oxy]methyl}isophthalic acid]
18 | 44 |  | 289 to 291 °C | O=C(O)c1ccc(COc2ccc3cc(-c4ccc(-c5ccccc5)[nH]4)ccc3c2)c(C(=O)O)c1 [Example 17, 4-({[6-(5-phenyl-1H-pyrrol-2-yl)-2-naphthyl]oxy}methyl)isophthalic acid]
